Measured values published in patent US20260001875A1, “AMINOPYRIMIDINYL DERIVATIVES FOR THE TREATMENT OF PARKINSON'S DISEASE” (UNIVERSITY OF DUNDEE, priority 2022, published 2026).
Where two headings read alike, the source gives them in different places.

What was measured:
[1] = biological target: T1, LRRK2^WT (Mus musculus, UniProt Q5S006); experiment: Western blot LRRK2 degradation in WT MEFs; assay type: cell-based; conditions: for Dmax: read-out: Dmax on WT MEFs
T1 construct: endogenous in cells; host or cells: primary wild-type mouse embryonic fibroblasts (MEFs)
T1 sequence (Q5S006 whole entry): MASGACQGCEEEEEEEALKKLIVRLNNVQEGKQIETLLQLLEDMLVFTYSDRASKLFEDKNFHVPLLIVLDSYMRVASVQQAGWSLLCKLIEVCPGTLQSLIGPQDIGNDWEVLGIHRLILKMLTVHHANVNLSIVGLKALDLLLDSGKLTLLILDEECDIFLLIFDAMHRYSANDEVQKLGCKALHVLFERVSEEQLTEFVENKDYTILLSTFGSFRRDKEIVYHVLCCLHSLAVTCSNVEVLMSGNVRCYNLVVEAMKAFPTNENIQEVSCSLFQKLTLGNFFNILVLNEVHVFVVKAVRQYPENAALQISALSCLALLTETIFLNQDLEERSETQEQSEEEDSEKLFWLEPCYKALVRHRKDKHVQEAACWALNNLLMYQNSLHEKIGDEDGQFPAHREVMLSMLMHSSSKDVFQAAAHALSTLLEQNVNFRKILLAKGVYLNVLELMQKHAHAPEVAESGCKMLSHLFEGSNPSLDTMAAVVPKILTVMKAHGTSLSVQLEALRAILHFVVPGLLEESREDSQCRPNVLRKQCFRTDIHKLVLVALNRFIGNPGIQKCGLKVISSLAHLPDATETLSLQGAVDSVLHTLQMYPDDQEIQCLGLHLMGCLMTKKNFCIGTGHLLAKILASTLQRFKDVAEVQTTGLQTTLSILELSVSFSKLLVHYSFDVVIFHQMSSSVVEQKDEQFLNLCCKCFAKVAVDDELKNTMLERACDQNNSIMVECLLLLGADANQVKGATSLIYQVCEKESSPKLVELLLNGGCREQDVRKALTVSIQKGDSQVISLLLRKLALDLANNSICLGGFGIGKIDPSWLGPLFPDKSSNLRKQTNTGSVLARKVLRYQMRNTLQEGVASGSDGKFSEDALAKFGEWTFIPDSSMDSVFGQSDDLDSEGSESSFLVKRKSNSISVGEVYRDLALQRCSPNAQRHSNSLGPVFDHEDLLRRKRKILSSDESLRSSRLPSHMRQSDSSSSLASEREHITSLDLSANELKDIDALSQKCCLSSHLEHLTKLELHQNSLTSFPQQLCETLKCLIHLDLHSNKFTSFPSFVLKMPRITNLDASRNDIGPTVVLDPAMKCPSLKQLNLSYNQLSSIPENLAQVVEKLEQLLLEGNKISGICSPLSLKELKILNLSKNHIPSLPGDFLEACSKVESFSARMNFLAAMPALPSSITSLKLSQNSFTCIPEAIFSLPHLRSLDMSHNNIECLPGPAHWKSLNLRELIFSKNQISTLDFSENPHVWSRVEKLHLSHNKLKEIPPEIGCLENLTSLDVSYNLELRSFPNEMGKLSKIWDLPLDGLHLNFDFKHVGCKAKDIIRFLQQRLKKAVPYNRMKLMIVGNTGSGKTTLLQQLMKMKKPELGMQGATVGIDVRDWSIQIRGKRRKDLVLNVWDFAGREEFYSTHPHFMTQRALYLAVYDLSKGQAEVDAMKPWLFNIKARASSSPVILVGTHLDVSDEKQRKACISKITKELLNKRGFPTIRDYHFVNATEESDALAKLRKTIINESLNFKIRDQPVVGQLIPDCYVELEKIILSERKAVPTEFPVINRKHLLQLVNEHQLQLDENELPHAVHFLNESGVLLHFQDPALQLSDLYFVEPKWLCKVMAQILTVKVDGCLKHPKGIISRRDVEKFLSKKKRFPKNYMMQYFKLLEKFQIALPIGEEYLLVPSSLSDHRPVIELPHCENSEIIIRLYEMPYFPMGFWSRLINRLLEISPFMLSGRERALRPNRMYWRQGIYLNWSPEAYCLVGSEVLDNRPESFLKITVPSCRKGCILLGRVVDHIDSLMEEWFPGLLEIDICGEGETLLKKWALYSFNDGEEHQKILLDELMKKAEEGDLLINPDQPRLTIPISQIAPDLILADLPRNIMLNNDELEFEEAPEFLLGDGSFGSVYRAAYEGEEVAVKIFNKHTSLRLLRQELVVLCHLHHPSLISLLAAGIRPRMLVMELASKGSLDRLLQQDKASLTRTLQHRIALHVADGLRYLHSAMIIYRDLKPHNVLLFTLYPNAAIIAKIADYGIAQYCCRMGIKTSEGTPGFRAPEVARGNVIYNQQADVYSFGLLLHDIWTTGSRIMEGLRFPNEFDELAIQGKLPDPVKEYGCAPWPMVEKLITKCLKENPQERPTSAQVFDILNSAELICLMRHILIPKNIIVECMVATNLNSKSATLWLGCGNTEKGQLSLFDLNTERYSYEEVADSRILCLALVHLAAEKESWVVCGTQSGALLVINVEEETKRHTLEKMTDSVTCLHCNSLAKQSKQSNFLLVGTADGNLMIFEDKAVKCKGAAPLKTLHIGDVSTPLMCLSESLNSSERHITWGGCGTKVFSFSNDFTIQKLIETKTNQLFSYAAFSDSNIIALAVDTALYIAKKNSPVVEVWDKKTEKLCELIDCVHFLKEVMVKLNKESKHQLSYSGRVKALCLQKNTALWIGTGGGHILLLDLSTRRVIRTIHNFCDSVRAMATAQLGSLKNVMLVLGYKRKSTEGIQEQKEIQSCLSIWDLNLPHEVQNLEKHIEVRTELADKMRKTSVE
Procedure: (§1) Western blot degradation assays for the LRRK2 protacs were performed with WT and PD-associated LRRK2 [G2019S] mouse embryonic fibroblasts (MEFs). The second-generation PROTACs were tested in parallel with the first generation PROTACs SD75, SD82, and SD100. The compounds were tested at 33 nM or […] concentrations for 4 hours or 24 hours, running two biological replicates per condition and achieving quantifications representative of both replicates. Analysis by quantitative immunoblotting was performed with readouts of the total LRRK2 (antibody recognizes epitope in C-terminus of protein), Rab10 pThr73 (physiological substrate) and LRRK2 pSer935 (biomarker phosphorylation site).
(§2) Primary MEFs were generated as described in a previous study (Wiggin et al., Mol. Cell Biol. 2002 April; 22(8):2871-81.). Briefly, the uterine horn was collected from adult female mice at day E12.5 and transferred to a 10 cm tissue culture dish containing cold PBS. Two forceps were used to tear the yolk sacs to isolate each embryo. Forceps were cleaned thoroughly with 70% ethanol between each embryo isolation. The embryos were culled, and a tissue piece was collected in a PCR tube for genotyping. The red tissue of the embryo, which grows to become the heart and liver, was removed. The remainder of the embryo was minced with a scalpel blade and incubated with 7.5 ml trypsin-EDTA solution for 10 minutes in a 37° C. tissue culture CO2 incubator. The dish was removed from the incubator and checked under a light microscope for single cells. 7.5 ml complete media was added to the trypsinised cells, and the cell suspension was transferred to a 15 ml Falcon tube, centrifuged at 1200 rpm for 5 minutes at room temperature. The trypsin was aspirated, the cell pellet was resuspended in 5 ml fresh complete media, and the cell suspension was plated in a 60 mm tissue culture dish and incubated in a 37° C., 5% CO2 tissue culture incubator. The MEFs at this stage were considered as passage 0 and were passaged and expanded for experimental use once the genotype was confirmed by allelic sequencing and immunoblotting. MEFs were cultured in Dulbecco's modified Eagle medium (DMEM) containing 10% (v/v) fetal bovine serum (FBS), 2 mM L-glutamine, 100 U/ml penicillin, and 100 μg/ml streptomycin supplemented with 1× non-essential amino acids and 1 mM sodium pyruvate.
Culturing and passaging of adherent cell lines were carried out using aseptic technique in CL1 or CL2 (for PBMC isolation) biological safety cabinets. All cells were incubated in a 37° C. incubator with 5% CO2. Cell lines were regularly tested for mycoplasma contamination. For western blot assay, the cells were seeded in 6-well plates. After treating with testing compounds at indicated concentrations and time period, the media was removed and the cells were washed with PBS and lysed in 100 μl ice-cold complete lysis buffer containing 50 mM Tris-HCl pH 7.4, 1 mM EGTA, 10 mM 2-glycerophosphate, 50 mM sodium fluoride, 5 mM sodium pyrophosphate, 270 mM sucrose, supplemented with 1 μg/ml microcystin-LR, 1 mM sodium orthovanadate, complete EDTA-free protease inhibitor cocktail (Roche) and 1% (v/v) Triton X-100. The cells were immediately placed on ice and were scraped and collected into 1.5 ml Eppendorf tubes. Cell lysates were incubated on ice for 10 minutes prior to centrifugation at 15,000 g at 4° C. for 15 minutes. The cell pellet was discarded, and supernatant was collected for analysis by quantitative immunoblotting. For long term storage, the supernatant was flash frozen and stored at −80° C. Protein concentrations of cell lysates were determined using the Bradford assay.
Cell lysates containing a quarter of a volume of 4× NuPAGE LDS sample buffer (NP0007) supplemented with 5% β-mercaptoethanol, were heated at 95° C. for 5 minutes. […]

[2] = biological target: T2, LRRK2^G2019S (Mus musculus, UniProt Q5S006, G2019S); experiment: Western blot LRRK2 degradation in LRRK2^G2019S MEFs; assay type: cell-based; conditions: for Dmax: read-out: Dmax on G2019S MEFs
T2 construct: endogenous in cells; host or cells: LRRK2[G2019S] mouse embryonic fibroblasts (MEFs)
T2 sequence (Q5S006 whole entry G2019S): as the sequence (Q5S006 whole entry) above, with G2019S counted along it
Procedure: as §1, with “The” for “Western blot degradation assays for the LRRK2 protacs were performed with WT and PD-associated LRRK2 [G2019S] mouse embryonic fibroblasts (MEFs). The”
as §2
Culturing and passaging of adherent cell lines were carried out using aseptic technique in CL1 or CL2 (for PBMC isolation) biological safety cabinets. All cells were incubated in a 37° C. incubator with 5% CO2. Cell lines were regularly tested for mycoplasma contamination. For western blot assay, the cells were seeded in 6-well plates. […] The cells were immediately placed on ice and were scraped and collected into 1.5 ml Eppendorf tubes. Cell lysates were incubated on ice for 10 minutes prior to centrifugation at 15,000 g at 4° C. for 15 minutes. The cell pellet was discarded, and supernatant was collected for analysis by quantitative immunoblotting. For long term storage, the supernatant was flash frozen and stored at −80° C. Protein concentrations of cell lysates were determined using the Bradford assay.
Cell lysates containing a quarter of a volume of 4× NuPAGE LDS sample buffer (NP0007) supplemented with 5% β-mercaptoethanol, were heated at 95° C. for 5 minutes. 15 to 20 μg of samples were loaded onto pre-cast 4-12% Bis-Tris midi 20W or 26W gels (Thermofisher Scientific®, Cat #WG1402BOX or WG1403BOX) and resolved at 130 V for 2 hours with NuPAGE MOPS SDS running buffer (Thermofisher Scientific® Cat #NP0001-02). Proteins were electrophoretically transferred onto a 0.45 μm nitrocellulose membrane (GE Healthcare, Amersham Protran® Supported 0.45 mm NC) at 90 V for 90 min on ice in transfer buffer (48 mM Tris base and 39 mM glycine supplemented with 20% methanol). The transferred membrane was blocked with 5% (w/v) skim milk powder dissolved in tris-buffered saline with tween (TBS-T) (50 mM Tris base, 150 mM sodium chloride (NaCl), 0.1% (v/v) Tween-20) at room temperature for 1 hour.

[3] = tested on: Rab10 pThr73; experiment: Rab10 Thr73 dephosphorylation (immunoblot) in WT MEFs; assay type: cell-based, mouse; conditions: Mus musculus; for inhibition at 0.033 µM / inhibition at 1 µM: read-out: pRab10 inhibited in WT MEFs; for EC50: dose response, 4 h treatment, read-out: WT MEFs pRab10-dephosphrylation EC50
How it was run: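 Wild-type mouse embryonic fibroblasts in 6-well plates were treated with LRRK2 PROTACs, with two biological replicates per condition. Cells were washed in PBS and lysed on ice in buffer containing phosphatase and protease inhibitors plus 1% Triton X-100, then clarified at 15,000 g. Rab10 Thr73 phosphorylation was measured by quantitative immunoblotting of 15 to 20 μg protein on 4-12% Bis-Tris gels.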

[4] = tested on: Rab10 pThr73; experiment: Rab10 Thr73 dephosphorylation (immunoblot) in LRRK2^G2019S MEFs; assay type: cell-based; conditions: Mus musculus, read-out: pRab10 inhibited in LRRK2^G2019S MEFs
[5] = tested on: Rab10 pThr73; experiment: as above; assay type: cell-based, mouse; conditions: Mus musculus; for inhibition at 1 µM: read-out: pRab10 inhibited in LRRK2^G2019S MEFs; for EC50: dose response, 4 h treatment, read-out: G2019S MEFs-pRab10-dephosphorylation EC50

| Compound | Dmax ([1]; dose response, 4 h treatment) | Dmax ([2]; dose response, 4 h treatment) | inhibition at 0.033 µM ([3]; 33 nM/4 h treatment) | inhibition at 0.033 µM ([3]; 33 nM/24 h treatment) | inhibition at 1 µM ([3]; 1 μM/4 h treatment) | inhibition at 1 µM ([3]; 1 μM/24 h treatment) | EC50 [3] | inhibition at 0.033 µM ([4]; 33 nM/4 h treatment) | inhibition at 0.033 µM ([4]; 33 nM/24 h treatment) | inhibition at 1 µM ([5]; 1 μM/4 h treatment) | inhibition at 1 µM ([5]; 1 μM/24 h treatment) | EC50 [5] | DC50 ([1]; dose response, 4 h treatment) | Dmax [1] | DC50 ([2]; dose response, 4 h treatment) | Dmax [2] |
| --- | --- | --- | --- | --- | --- | --- | --- | --- | --- | --- | --- | --- | --- | --- | --- | --- |
| CNc1nc(Nc2ccc(C(=O)N3CCN(C[C@H]4CC[C@@H](CSC(C)(C)[C@H](NC(=O)C5(F)CC5)C(=O)N5C[C@H](O)CC5C(=O)N[C@@H](C)c5ccc(-c6scnc6C)cc5)CC4)CC3)cc2OC)ncc1Cl (stereo partly drawn) [XL02060, (2S,4R)-1-((R)-3-((((1s,4S)-4-((4-(4-((5-chloro-4-(methylamino)pyrimidin-2-yl)amino)-3-methoxybenzoyl)piperazin-1-yl)methyl)cyclohexyl)methyl)thio)-2-(1-fluorocyclopropane-1-carboxamido)-3-methylbutanoyl)-4-hydroxy-N—((S)-1-(4-(4-methylthiazol-5-yl)phenyl)ethyl)pyrrolidine-2-carboxamide] | 71% | 78.5% | 0 to 70% | 0 to 80% | 80 to 100% | 80 to 100% | 32 nM | 0 to 90% | 30 to 90% | 10 to 100% | 80 to 100% | 27 nM |  |  |  |  |
| CNc1nc(Nc2ccc(C(=O)N3CCN(C(=O)[C@H]4CC[C@H](CSC(C)(C)[C@H](NC(=O)C5(F)CC5)C(=O)N5C[C@H](O)CC5C(=O)NCc5ccc(-c6scnc6C)cc5)CC4)CC3)cc2OC)ncc1Cl (stereo partly drawn) [XL02068, (2S,4R)-1-((R)-3-((((1R,4R)-4-(4-(4-((5-chloro-4-(methylamino)pyrimidin-2-yl)amino)-3-methoxybenzoyl)piperazine-1-carbonyl)cyclohexyl)methyl)thio)-2-(1-fluorocyclopropane-1-carboxamido)-3-methylbutanoyl)-4-hydroxy-N-(4-(4-methylthiazol-5-yl)benzyl)pyrrolidine-2-carboxamide] |  |  | 0 to 70% | 0 to 80% | 80 to 100% | 80 to 100% | 272 nM | 0 to 90% | 30 to 90% | 10 to 100% | 80 to 100% | 150 nM | 93 nM | 89% | 103 nM | 87% |
| CNc1nc(Nc2ccc(C(=O)N3CCN(C[C@H]4CC[C@@H](CSC(C)(C)[C@H](NC(=O)C5(F)CC5)C(=O)N5C[C@H](O)CC5C(=O)NCc5ccc(-c6scnc6C)cc5C)CC4)CC3)cc2OC)ncc1Cl (stereo partly drawn) [XL02059, (2S,4R)-1-((R)-3-((((1s,4S)-4-((4-(4-((5-chloro-4-(methylamino)pyrimidin-2-yl)amino)-3-methoxybenzoyl)piperazin-1-yl)methyl)cyclohexyl)methyl)thio)-2-(1-fluorocyclopropane-1-carboxamido)-3-methylbutanoyl)-4-hydroxy-N-(2-methyl-4-(4-methylthiazol-5-yl)benzyl)pyrrolidine-2-carboxamide] | 77.5% | 76% | 0 to 70% | 0 to 80% | 80 to 100% | 80 to 100% | 227 nM | 0 to 90% | 30 to 90% | 10 to 100% | 80 to 100% | 55 nM |  |  |  |  |
| CNc1nc(Nc2ccc(C(=O)N3CCN(C[C@H]4CC[C@H](CSC(C)(C)[C@H](NC(=O)C5(F)CC5)C(=O)N5C[C@H](O)CC5C(=O)N[C@@H](C)c5ccc(-c6scnc6C)cc5)CC4)CC3)cc2OC)ncc1Cl (stereo partly drawn) [XL02049, (2S,4R)-1-((R)-3-((((1R,4R)-4-((4-(4-((5-chloro-4-(methylamino)pyrimidin-2-yl)amino)-3-methoxybenzoyl)piperazin-1-yl)methyl)cyclohexyl)methyl)thio)-2-(1-fluorocyclopropane-1-carboxamido)-3-methylbutanoyl)-4-hydroxy-N—((S)-1-(4-(4-methylthiazol-5-yl)phenyl)ethyl)pyrrolidine-2-carboxamide] | 76.5% | 90% | 0 to 70% | 0 to 80% | 80 to 100% | 80 to 100% | 65 nM | 0 to 90% | 30 to 90% | 10 to 100% | 80 to 100% | 31 nM | 40 nM |  | 27 nM |  |
